Test results taken from US8288411B2, “Pyrrolidines and piperidines as orexin receptor antagonists” (Actelion Pharmaceuticals Ltd., priority 2007, dated 2012).
Where two headings read alike, the source gives them in different places.

Assays:
human orexin-1 receptor = target: T1, human orexin-1 receptor (Homo sapiens, UniProt O43613); assay: FLIPR intracellular calcium assay, orexin receptor antagonistic activity, CHO cells expressing human orexin-1 receptor; format: cell-based; details: read-out: OX1 IC50
T1 construct: expressed in transfected cells; host or cells: CHO cells (G418 selection)
T1 sequence (O43613 1-425): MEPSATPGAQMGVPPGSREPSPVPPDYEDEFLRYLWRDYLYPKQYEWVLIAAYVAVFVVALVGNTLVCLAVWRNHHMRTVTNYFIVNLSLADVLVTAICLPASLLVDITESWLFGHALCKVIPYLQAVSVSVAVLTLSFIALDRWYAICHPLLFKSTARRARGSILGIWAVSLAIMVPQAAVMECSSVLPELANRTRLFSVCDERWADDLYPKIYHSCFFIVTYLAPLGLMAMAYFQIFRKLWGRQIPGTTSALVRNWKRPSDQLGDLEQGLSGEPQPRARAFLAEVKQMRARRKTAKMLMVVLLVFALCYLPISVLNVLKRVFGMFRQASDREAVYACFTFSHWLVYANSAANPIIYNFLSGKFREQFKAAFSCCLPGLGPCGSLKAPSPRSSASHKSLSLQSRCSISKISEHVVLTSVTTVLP
Experimental: (§1) The orexin receptor antagonistic activity of the compounds of formula (I) is determined in accordance with one of the following experimental methods.
(§2) Chinese hamster ovary (CHO) cells expressing the human orexin-1 receptor and the human orexin-2 receptor, respectively, are grown in culture medium (Ham F-12 with L-Glutamine) containing 300 μg/ml G418, 100 U/ml penicillin, 100 μg/ml streptomycin and 10% heat inactivated fetal calf serum (FCS). The cells are seeded at 20'000 cells/well into 384-well black clear bottom sterile plates (Greiner). The seeded plates are incubated overnight at 37° C. in 5% CO2.
(§3) Human orexin-A as an agonist is prepared as 1 mM stock solution in MeOH: water (1:1), diluted in HBSS containing 0.1% bovine serum albumin (BSA), NaHCO3: 0.375 g/l and 20 mM HEPES for use in the assay at a final concentration of 3 nM.
(§4) Antagonists are prepared as 10 mM stock solution in DMSO, then diluted in 384-well plates, first in DMSO, then in HBSS containing 0.1% bovine serum albumin (BSA), NaHCO3: 0.375 g/l and 20 mM HEPES.
(§5) On the day of the assay, 50 μl of staining buffer (HBSS containing 1% FCS, 20 mM HEPES, NaHCO3: 0.375 g/l, 5 mM probenecid (Sigma) and 3 μM of the fluorescent calcium indicator fluo-4 AM (1 mM stock solution in DMSO, containing 10% pluronic) is added to each well.
(§6) The 384-well cell-plates are incubated for 50 min at 37° C. in 5% CO2 followed by equilibration at RT for 30-120 min before measurement.
(§7) Within the Fluorescent Imaging Plate Reader (FLIPR2 or FLIPR Tetra, Molecular Devices), antagonists are added to the plate in a volume of 10 μl/well, incubated for 10 min and finally 10 μl/well of agonist is added. Fluorescence is measured for each well at 1 second intervals, and the height of each fluorescence peak is compared to the height of the fluorescence peak induced by 3 nM orexin-A with vehicle in place of antagonist. For each antagonist, the IC50 value (the concentration of compound needed to inhibit 50% of the agonistic response) is determined. Optimized conditions may be achieved by adjustment of pipetting speed and cell splitting regime. The calculated IC50 values of the compounds may fluctuate depending on the daily cellular assay performance. Fluctuations of this kind are known to those skilled in the art.

human orexin-2 receptor = target: T2, human orexin-2 receptor (Homo sapiens, UniProt O43614); assay: FLIPR intracellular calcium assay, orexin receptor antagonistic activity, CHO cells expressing human orexin-2 receptor; format: cell-based; details: read-out: OX2 IC50
T2 construct: expressed in transfected cells; host or cells: CHO cells (G418 selection)
T2 sequence (O43614 1-444): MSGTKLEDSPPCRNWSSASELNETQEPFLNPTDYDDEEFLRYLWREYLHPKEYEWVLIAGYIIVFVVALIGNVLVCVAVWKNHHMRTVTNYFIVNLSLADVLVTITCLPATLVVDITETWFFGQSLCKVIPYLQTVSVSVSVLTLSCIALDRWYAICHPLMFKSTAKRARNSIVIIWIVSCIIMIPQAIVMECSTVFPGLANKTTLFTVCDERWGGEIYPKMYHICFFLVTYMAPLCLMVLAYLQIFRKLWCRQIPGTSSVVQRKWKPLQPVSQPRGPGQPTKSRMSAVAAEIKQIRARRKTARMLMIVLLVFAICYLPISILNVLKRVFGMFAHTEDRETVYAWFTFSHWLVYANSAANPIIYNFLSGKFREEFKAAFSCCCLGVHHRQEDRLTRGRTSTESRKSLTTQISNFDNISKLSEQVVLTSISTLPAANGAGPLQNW
Experimental: as §1, §2, §3, §4, §5, §6, §7

[1] = marked with *: measured with FLIPR Tetra, 3 nM orexin-A as agonist
[2] = measured with FLIPR 2, 3 nM orexin-A as agonist

IC50 (human orexin-1 receptor; [1]) [nM] | IC50 (human orexin-2 receptor; [1]) [nM] | IC50 (human orexin-1 receptor; [2]) [nM] | IC50 (human orexin-2 receptor; [2]) [nM] | Compound
20 | 68 |  |  | O=C(NC[C@@H]1CCCCN1C(=O)c1nc(-c2ccccc2)sc1-c1ccccc1F)c1cccc2c1CCO2 [Example 17, (S)-2,3-dihydro-benzofuran-4-carboxylic acid{1-[5-(2-fluoro-phenyl)-2-phenyl-thiazole-4-carbonyl]-piperidin-2-ylmethyl}-amide]
 |  | 1 | 12 | Cc1cccc(-c2nc(C(=O)N3CCC[C@H]3CNC(=O)c3c(C)nc4sccn34)c(-c3ccc(F)cc3)s2)c1 [Example 45, (S)-6-methyl-imidazo[2,1-b]thiazole-5-carboxylic acid{1-[5-(4-fluoro-phenyl)-2-m-tolyl-thiazole-4-carbonyl]-pyrrolidin-2-ylmethyl}-amide]
 |  | 1 | 24 | Cc1nc2sccn2c1C(=O)NC[C@@H]1CCCCN1C(=O)c1nc(-c2ccc(F)cc2)sc1-c1ccc(F)cc1 [Example 3]
 |  | 2 | 7 | COc1cccc(-c2nc(C(=O)N3CCCC[C@H]3CNC(=O)c3c(C)nc4sccn34)c(-c3ccc(F)cc3)s2)c1 [Example 5, (S)-6-methyl-imidazo[2,1-b]thiazole-5-carboxylic acid{1-[5-(4-fluoro-phenyl)-2-(3-methoxy-phenyl)-thiazole-4-carbonyl]-piperidin-2-ylmethyl}-amide]
10 | 60 |  |  | Cn1cc(C(=O)NC[C@@H]2CCCCN2C(=O)c2nc(-c3ccccc3)sc2-c2ccccc2F)c2ccccc21 [Example 24, (S)-1-methyl-1H-indole-3-carboxylic acid{1-[5-(2-fluoro-phenyl)-2-phenyl-thiazole-4-carbonyl]-piperidin-2-ylmethyl}-amide]
9 | 18 |  |  | Cn1nc(C(=O)NC[C@@H]2CCCN2C(=O)c2nc(-c3cccnc3)sc2-c2cccc(Cl)c2)c2ccccc21 [Example 44, (S)-1-methyl-1H-indazole-3-carboxylic acid{1-[5-(3-chloro-phenyl)-2-pyridin-3-yl-thiazole-4-carbonyl]-pyrrolidin-2-ylmethyl}-amide]
 |  | 2 | 8 | Cc1ccc(-c2sc(-c3ccccc3)nc2C(=O)N2CCCC[C@H]2CNC(=O)c2c(C)nc3sccn23)cc1 [Example 38, (S)-6-methyl-imidazo[2,1-b]thiazole-5-carboxylic acid[1-(2-phenyl-5-p-tolyl-thiazole-4-carbonyl)-piperidin-2-ylmethyl]-amide]
